Each compound was assayed on IL-17 induced IL-6 release from human dermal fibroblasts (assay: Inhibition of IL-17A induced IL-6 release from dermal fibroblast cell line (HDF cell line assay)). Conditions: Incubation Time 5 h.
Format: cell-based
Method: Inhibition of IL-17A Induced IL-6 Release from Dermal Fibroblast Cell Line
The purpose of this assay is to test the neutralising ability to IL-17 proteins, in a human primary cell system.
The resultant IL-6 response was then measured using a homogenous time-resolved FRET kit from Cisbio. The kit utilises two monoclonal antibodies, one labelled with Eu-Cryptate (Donor) and the second with d2 or XL665 (Acceptor).
The ability of a compound to inhibit IL-17 induced IL-6 release from human dermal fibroblasts is measured in this assay.
The TrypLE was neutralised using complete medium (45 mL) and the cells were centrifuged at 300×g for 3 minutes. […] The cells were left for a minimum of three hours, at 37° C./5% CO2, to adhere to the plate.
10 μL from the aqueous dilution plate was transferred to the reagent plate containing 30 μL of the diluted cytokines, to give a 2.5% DMSO solution. The compounds were incubated with the cytokine mixtures for 1 h or 5 h at 37° C. After the incubation, 10 μL was transferred to the assay plate, to give a […] solution, then incubated for 18-20 h at 37° C./5% CO2.

SMILES	IC50 [nM]
CCS(=O)(=O)CCC(C(=O)N1CC(F)(F)C(F)(F)C1)c1ccc2[nH]c([C@@H](NC(=O)c3nonc3C)C3CCC(F)(F)CC3)nc2c1F (mixture of isomers) [Example 27, N—[(S)-(4,4-Difluorocyclohexyl){5-[3-(ethylsulfonyl)-1-(3,3,4,4-tetrafluoropyrrolidine-1-carbonyl)propyl]-4-fluoro-1H-benzimidazol-2-yl}methyl]-4-methyl-1,2,5-oxadiazole-3-carboxamide]	6.31
Cc1nonc1C(=O)N[C@H](c1nc2c(F)c(C(CC(F)F)C(=O)N[C@@H](C)C(F)(F)F)ccc2[nH]1)C1CCC(F)(F)CC1 (mixture of isomers) [Example 43, N—{(S)-(4,4-Difluorocyclohexyl)[5-(3,3-difluoro-1-{[(1S)-2,2,2-trifluoro-1-methylethyl]-carbamoyl}propyl)-4-fluoro-1H-benzimidazol-2-yl]methyl}-4-methyl-1,2,5-oxadiazole-3-carboxamide]	50.1
Cc1nonc1C(=O)N[C@H](c1nc2c(F)c(C(CC(F)F)C(=O)N[C@H](C)C(F)(F)F)ccc2[nH]1)C1CCC(F)(F)CC1 (mixture of isomers) [Example 46, N—{(S)-(4,4-Difluorocyclohexyl)[5-(3,3-difluoro-1-{[(1R)-2,2,2-trifluoro-1-methylethyl]-carbamoyl}propyl)-4-fluoro-1H-benzimidazol-2-yl]methyl}-4-methyl-1,2,5-oxadiazole-3-carboxamide]	398
CC(C)n1ncnc1C(=O)N[C@H](c1nc2c(F)c(C(CC(F)F)C(=O)NCC(C)(F)F)ccc2[nH]1)C1CCC(F)(F)CC1 (mixture of isomers) [Example 53, N—[(S)-(4,4-Difluorocyclohexyl){5-[1-(2,2-difluoropropylcarbamoyl)-3,3-difluoropropyl]-4-fluoro-1H-benzimidazol-2-yl}methyl]-2-isopropyl-1,2,4-triazole-3-carboxamide]	63.1
CC(C)n1ncnc1C(=O)N[C@H](c1nc2c(F)c(C(CC(F)(F)F)C(=O)NCC(C)(F)F)ccc2[nH]1)C1CCC(F)(F)CC1 (mixture of isomers) [Example 68, N—[(S)-(4,4-Difluorocyclohexyl){5-[1-(2,2-difluoropropylcarbamoyl)-3,3,3-trifluoro-propyl]-4-fluoro-1H-benzimidazol-2-yl}methyl]-2-isopropyl-1,2,4-triazole-3-carboxamide]	12.6
CC(C)n1ncnc1C(=O)N[C@H](c1nc2c(F)c(C(CC(F)(F)F)C(=O)NCC(C)(C)F)ccc2[nH]1)C1CCC(F)(F)CC1 (mixture of isomers) [Example 71, N—[(S)-(4,4-Difluorocyclohexyl)(4-fluoro-5-{3,3,3-trifluoro-1-[(2-fluoro-2-methyl-propyl)carbamoyl]propyl}-1H-benzimidazol-2-yl)methyl]-2-isopropyl-1,2,4-triazole-3-carboxamide]	25.1
CC(F)(F)CNC(=O)C(CC(F)(F)F)c1ccc2[nH]c([C@@H](NC(=O)C3(F)CC3)C3CCC(F)(F)CC3)nc2c1F (mixture of isomers) [Example 82, N—[(S)-(4,4-Difluorocyclohexyl){5-[1-(2,2-difluoropropylcarbamoyl)-3,3,3-trifluoro-propyl]-4-fluoro-1H-benzimidazol-2-yl}methyl]-1-fluorocyclopropanecarboxamide]	25.1
CC(C)n1ncnc1C(=O)N[C@H](c1nc2c(F)c([C@H](CC(C)(F)F)C(=O)NCC(C)(F)F)ccc2[nH]1)C1CCC(F)(F)CC1 (mixture of isomers) [Example 85, N—[(S)-(4,4-Difluorocyclohexyl){5-[1-(2,2-difluoropropylcarbamoyl)-3,3-difluorobutyl]-4-fluoro-1H-benzimidazol-2-yl}methyl]-2-isopropyl-1,2,4-triazole-3-carboxamide]	12.6
Cc1nonc1C(=O)N[C@H](c1nc2c(F)c(C(CC(F)(F)F)C(=O)N[C@@H](C)C(F)(F)F)ccc2[nH]1)C1CCC(F)(F)CC1 (mixture of isomers) [Example 15, N—{(S)-(4,4-Difluorocyclohexyl)[4-fluoro-5-(3,3,3-trifluoro-1-{[(1S)-2,2,2-trifluoro-1-methylethyl]carbamoyl}propyl)-1H-benzimidazol-2-yl]methyl}-4-methyl-1,2,5-oxadiazole-3-carboxamide]	20
Cc1nonc1C(=O)N[C@H](c1nc2c(F)c(C(CC(F)(F)F)C(=O)NCC(F)(F)F)ccc2[nH]1)C1CCC(F)(F)CC1 (mixture of isomers) [Example 33, N—[(S)-(4,4-Difluorocyclohexyl){4-fluoro-5-[3,3,3-trifluoro-1-(2,2,2-trifluoroethyl-carbamoyl)propyl]-1H-benzimidazol-2-yl}methyl]-4-methyl-1,2,5-oxadiazole-3-carboxamide]	3.98
Cc1nonc1C(=O)N[C@H](c1nc2c(F)c(C(CC(F)(F)F)C(=O)NCC(F)F)ccc2[nH]1)C1CCC(F)(F)CC1 (mixture of isomers) [Example 36, N—[(S)-(4,4-Difluorocyclohexyl){5-[1-(2,2-difluoroethylcarbamoyl)-3,3,3-trifluoro-propyl]-4-fluoro-1H-benzimidazol-2-yl}methyl]-4-methyl-1,2,5-oxadiazole-3-carboxamide]	31.6
Cc1nonc1C(=O)N[C@H](c1nc2c(F)c(C(CC(F)F)C(=O)NCC(F)(F)F)ccc2[nH]1)C1CCC(F)(F)CC1 (mixture of isomers) [Example 40, N—[(S)-(4,4-Difluorocyclohexyl){5-[3,3-difluoro-1-(2,2,2-trifluoroethylcarbamoyl)-propyl]-4-fluoro-1H-benzimidazol-2-yl}methyl]-4-methyl-1,2,5-oxadiazole-3-carboxamide]	7.94
O=C(N[C@H](c1nc2c(F)c(C(CC(F)F)C(=O)NCC(F)(F)F)ccc2[nH]1)C1CCC(F)(F)CC1)c1ccccc1F (mixture of isomers) [Example 49, N—[(S)-(4,4-Difluorocyclohexyl){5-[3,3-difluoro-1-(2,2,2-trifluoroethylcarbamoyl)-propyl]-4-fluoro-1H-benzimidazol-2-yl}methyl]-2-fluorobenzamide]	31.6
CC(C)(F)CNC(=O)C(CC(F)(F)F)c1ccc2[nH]c([C@@H](NC(=O)c3nonc3C3CC3)C3CCC(F)(F)CC3)nc2c1F (mixture of isomers) [Example 62, 4-Cyclopropyl-N—[(S)-(4,4-difluorocyclohexyl)(4-fluoro-5-{3,3,3-trifluoro-1-[(2-fluoro-2-methylpropyl)carbamoyl]propyl}-1H-benzimidazol-2-yl)methyl]-1,2,5-oxadiazole-3-carboxamide]	5.01
Cc1nonc1C(=O)N[C@H](c1nc2c(F)c([C@H](CC(F)(F)F)C(=O)N[C@@H](C(=O)N(C)C)C(C)C)ccc2[nH]1)C1CCC(F)(F)CC1 (single isomer, unassigned) [Example 11]	3.98
Cc1nonc1C(=O)N[C@H](c1nc2c(F)c([C@@H](CC(F)(F)F)C(=O)N[C@@H](C(=O)N(C)C)C(C)C)ccc2[nH]1)C1CCC(F)(F)CC1 (single isomer, unassigned) [Example 12]	126
Cc1nonc1C(=O)N[C@H](c1nc2c(F)c([C@H](CC(F)(F)F)C(=O)N[C@@H](C)C(F)(F)F)ccc2[nH]1)C1CCC(F)(F)CC1 (single isomer, unassigned) [Example 25]	7.94
Cc1nonc1C(=O)N[C@H](c1nc2c(F)c([C@@H](CC(F)(F)F)C(=O)N[C@@H](C)C(F)(F)F)ccc2[nH]1)C1CCC(F)(F)CC1 (single isomer, unassigned) [Example 26]	126
CCS(=O)(=O)CC[C@H](C(=O)N1CC(F)(F)C(F)(F)C1)c1ccc2[nH]c([C@@H](NC(=O)c3nonc3C)C3CCC(F)(F)CC3)nc2c1F (single isomer, unassigned) [Example 28]	3.16
CCS(=O)(=O)CC[C@@H](C(=O)N1CC(F)(F)C(F)(F)C1)c1ccc2[nH]c([C@@H](NC(=O)c3nonc3C)C3CCC(F)(F)CC3)nc2c1F (single isomer, unassigned) [Example 29]	126
Cc1nonc1C(=O)N[C@H](c1nc2c(F)c([C@H](CC(F)(F)F)C(=O)NCC(F)(F)F)ccc2[nH]1)C1CCC(F)(F)CC1 (single isomer, unassigned) [Example 34]	2.51
Cc1nonc1C(=O)N[C@H](c1nc2c(F)c([C@@H](CC(F)(F)F)C(=O)NCC(F)(F)F)ccc2[nH]1)C1CCC(F)(F)CC1 (single isomer, unassigned) [Example 35]	631
Cc1nonc1C(=O)N[C@H](c1nc2c(F)c([C@H](CC(F)(F)F)C(=O)NCC(F)F)ccc2[nH]1)C1CCC(F)(F)CC1 (single isomer, unassigned) [Example 37]	15.8
Cc1nonc1C(=O)N[C@H](c1nc2c(F)c([C@@H](CC(F)(F)F)C(=O)NCC(F)F)ccc2[nH]1)C1CCC(F)(F)CC1 (single isomer, unassigned) [Example 38]	100
Cc1nonc1C(=O)N[C@H](c1nc2c(F)c([C@H](CC(F)F)C(=O)NCC(F)(F)F)ccc2[nH]1)C1CCC(F)(F)CC1 (single isomer, unassigned) [Example 41]	5.01
Cc1nonc1C(=O)N[C@H](c1nc2c(F)c([C@@H](CC(F)F)C(=O)NCC(F)(F)F)ccc2[nH]1)C1CCC(F)(F)CC1 (single isomer, unassigned) [Example 42]	126
Cc1nonc1C(=O)N[C@H](c1nc2c(F)c([C@H](CC(F)F)C(=O)N[C@@H](C)C(F)(F)F)ccc2[nH]1)C1CCC(F)(F)CC1 (single isomer, unassigned) [Example 44]	10
